Earlier results as cited in patent US20230271770A1, “Anti-Viral Pharmaceutical Formulations Administered Via Devices for Lung Targeted Delivery” (priority 2020, published 2023).

Details: HCQ particles typically inhaled to treat asthma; cited from earlier work

Q: With CCN(CCO)CCCC(C)Nc1ccnc2cc(Cl)ccc12 (stereo not shown) [HCQ, hydroxychloroquine] as the molecule, how does the “mean HCQ particle size” value read?
A: 3.2 μm
